Data: patent US10800810B2, “Active peptide for inhibiting AMPA receptor and preparation method and use thereof” (CHINA NATIONAL RESEARCH INSTITUTE OF FOOD AND FERMENTATION …, priority 2015, dated 2020)

Columns and labels:
[1] = background; cited from earlier work
[2] = test system: pentylenetetrazole (PTZ) model; conditions: background; cited from earlier work
[3] = test system: neurons of CA1 region of the hippocampus; test: Whole-cell recording of EPSC and mEPSC in mouse hippocampal slices; type: cell-based; conditions: for amplitudes of mEPSCs: P<0.03
Protocol: Hippocampus is taken from a C57BL/6 mouse to do whole-cell recording. The mouse is deep narcotized with 20% urethane before being decollated, then its brain is rapidly removed and immersed in ice-cold ACSF, then the brain is trimmed, and fixed onto a vibration slicer (Leica VT1000A, Germany) to be cut into coronal slices of 350 microns. The slices are incubated with ACSF for at least 1 hour at room temperature before recording.
(§1) The slices of the hippocampus are transferred to an underwater recording room (Warner instrument). In the recording room, the slices are continuously perfused with ACSF at a speed of 3 ml/min, and whole-cell records of neurons of CA1 region of the hippocampus are performed by those experimenters who are not distinguished between a control group and a treated group. The neurons are identified through morphological recognition using an infrared ray differential interference phase-contrast microscope (BX51W, Olympus, Japan). A borosilicate microtube of 1.5 mm (external diameter)×0.86 mm (internal diameter) is drawn via a flame Brown electrode drawing instrument (P-97, Sutter instrument) using a 4 stage drawing scheme, to form a recording electrode with a resistance between 6-9 megohms. The recording electrode for recording is filled with above-mentioned internal liquid, and a whole-cell recording is proceeded by using above-mentioned external liquid.
(§2) Bipolar polytetrafluoroethylene insulated iridium is used to perform a voltage-clamp recording of excitatory postsynaptic currents (EPSCs), and platinum microelectrode (AM system) is induced at a frequency of 0.0167 Hz. Records are taken by a Multiclamp 700B amplifier, filtered at 10 kHz, sampled at 200 microseconds, and recorded to a personal computer by using pClamp10.2 software, and then analyzed by using Axon Digidata 1440A and pClamp10.2 (Molecular Devices).
Experiments mentioned below are carried out respectively, and the results are represented by an average value±S.E.M. In addition to data analysis of cumulative probability by the means of K-S test, statistical analyses of biological data are all performed by using T-test. All the statistical analyses are done by using SPSS 13.0 software.
(1) EPSCs of slices treated by EGAR are recorded, while EPSCs of slices without EGAR treatment is as contrast, and 10 μM of PTX is added into the external liquid to separate mEPSCs out.

[4] = test system: AMPA receptor; test: AMPAR-mediated EPSC and mEPSC in mouse hippocampal slices; type: cell-based
Protocol: as §1, §2
(§3) (2) after blocking components of NMDA receptor-mediated EPSCs by adding 50 μM of D-APV to ACSF and blocking AMPAR-mediated EPSCs by adding 10 μM of CNQX to ACSF, remaining EPSCs of both them are also recorded. 10 μM of PTX is added in external liquid to isolate mEPSCs. After 10 μM of CNQX and 20 μM of EGAR and also 50 μM of D-APV (an antagonist of NMDA receptor) and 20 μM of EGAR are added to ACSF, mEPSCs are also recorded. By adding 10 μM of CNQX or 50 μM of D-APV to ACSF, NMDAR-mediated or AMPAR-mediated mEPSCs are isolated.
(3) With regard to a NMDAR-mediated current record, 100 μM of NMDA is added into the above-mentioned external liquid; and with regard to an AMPAR-mediated current record, 20 μM of AMPA is added into above-mentioned external liquid.

[5] = test system: NMDA receptor; test: NMDAR-mediated EPSC and mEPSC in mouse hippocampal slices; type: cell-based
Protocol: as §1, §2
as §3, with “isolated. […]” for “isolated.”

[6] = test system: AMPA receptor; test: Current induced by AMPA, patch clamp; type: cell-based, mouse
Protocol: as §1
(§4) (4) With regard to records of currents induced by NMDA, 100 μM of NMDA is added into above-mentioned external liquid; with regard to records of currents induced by AMPA, 20 μM of AMPA is added into above-mentioned external liquid.

[7] = test system: NMDA receptor; test: Current induced by NMDA, patch clamp; type: cell-based, mouse; conditions: 100 μM NMDA plus 20 μM EGAR, P>0.05, n=6
Protocol: as §1, §4

[8] = test system: hippocampal neuron; test: Epilepsy-like discharge of a hippocampal neuron induced by low magnesium external liquid; type: cell-based, mouse
Protocol: as §1
(5) In an experiment of nominal zero magnesium, magnesium ions are replaced by sodium ions with the same osmotic concentration.

[9] = test system: CA1 neuron; test: Effect on electrophysiological properties of a neuron; type: cell-based, mouse
Protocol: as §1

[10] = test system: PTZ-induced mouse epilepsy; test: Model of PTZ-induced epilepsy seizure; type: in vivo; conditions: for preclinical period of epilepsy seizure vs PBS treated group: 30 minutes before PTZ 55 mg/kg i.p.
Protocol: In order to determine anticonvulsive effect of EGAR, the degree of epilepsy after EGAR treatment is evaluated for the model of PTZ-induced epilepsy seizure. EGAR is injected into animals earlier 30 minutes than PTZ. The animals are randomly divided into 4 groups, and each group has 10 animals. 4 groups are given EGAR at 0, 1, 10 and 100 mg/kg respectively. All animals are intraperitoneally injected with PTZ at a dose of 55 mg/kg, and this dose can produce clonic seizures in all control animals.
Behaviors of mice are observed for 30 minutes immediately after PTZ injection. […] Mice are placed in a transparent plastic cage, and are observed for 30 minutes. The cage is thoroughly cleaned by using wet/dry cloth and any olfactory clue is removed with 70% ethanol. Animals that show rampage and forelimb clonus or more serious behavior (rampage, clonus and fall down) are considered to be epilepsy in mouse brain edge. Epilepsy seizure is scored according to the following criteria: 0, no response; 1, immobile; 2, taste movement and grasping; 3, tremor; 4, head shaking; 5, rampage and forelimb clonus; 6, rampage, clonus and fall down; 7, death.

[11] = behavioral experiment, overall conclusion

Q: What does the source list for NS(=O)(=O)c1cccc2c1c([N+](=O)[O-])cc1nc(O)c(O)nc12 [NBQX, 2,3-dihydroxy-6-nitro-7-sulfamoyl benzo [f] quinoxaline]?
A: solubility [1]: low solubility; effect in pentylenetetrazole (PTZ) model [2]: can play a role

Q: For “EGAR: tetrapeptide with an amino-acid sequence of SEQ ID No.17, contained in the salmon skin active peptide; synthetic EGAR used in tests (Salmo salar)”, which “amplitudes of mEPSCs” value ([3]; 20 μM EGAR) is on record?
A: The value was “reduce”.

Q: What about the “amplitudes of mEPSCs” value ([3]; 50 μM EGAR) of the same molecule?
A: Its value is “reduce”.

Q: And the “amplitudes of mEPSCs” value ([3]; 100 μM EGAR)?
A: Its value is “reduce”.

Q: What about the “cumulative probabilities of mEPSC event intervals vs control group” value ([3]; EGAR treated groups at concentrations) of the same molecule?
A: The value was “no difference”.

Q: What about the “cumulative probabilities of mEPSC amplitudes vs control group” value ([3]; EGAR treated groups at concentrations, K-S test p<0.05) of the same molecule?
A: The value was “reduced”.

Q: What about the “mEPSC frequencies vs control group” value ([3]; slices treated with EGAR, 10 μM PTX) of the same molecule?
A: The value was “no change”.

Q: What about the “amplitude of AMPAR-mediated EPSC vs control group” value ([4]; 50 μM D-APV and 20 μM EGAR, P<0.01, n=6) of the same molecule?
A: The value was “significantly lower”.

Q: What about the “cumulative probabilities of AMPAR-mediated mEPSCs amplitudes vs control group” value ([4]; K-S test, p<0.05, n=6) of the same molecule?
A: The value was “reduces”.

Q: What about the “cumulative probabilities of AMPAR-mediated mEPSC event intervals vs control group” value ([4]; K-S test, p>0.05, n=6) of the same molecule?
A: The value was “no difference in frequency”.

Q: And the “amplitude of AMPAR-mediated mEPSCs vs control group” value ([4]; neurons treated by EGAR, P<0.05, t test, n=6)?
A: The value was “decline”.

Q: What about the “frequencies of AMPAR-mediated mEPSCs vs control group” value ([4]; neurons treated with EGAR, P>0.05, t test) of the same molecule?
A: The value was “do not change”.

Q: And the “amplitude of NMDAR-mediated EPSC vs control group” value ([5]; 10 μM CNQX then 20 μM EGAR, P>0.05, n=6)?
A: Its value is “not changed”.

Q: And the “frequencies of NMDAR-mediated mEPSCs” value ([5]; 100 μM NMDA plus 20 μM EGAR, P>0.05)?
A: The value was “no significant difference”.

Q: And the “amplitudes of NMDAR-mediated mEPSCs” value ([5]; 100 μM NMDA plus 20 μM EGAR, P>0.05, n=6)?
A: Its value is “no significant difference”.

Q: What about the “peak current of AMPA, difference between groups” value ([6]; 20 μM AMPA plus 20 μM EGAR, P<0.01, n=6) of the same molecule?
A: Its value is “significant difference”.

Q: What about the “inward current induced by AMPA” value ([6]; 20 μM AMPA, 20 μM EGAR, voltage-clamped at -70 mV) of the same molecule?
A: The value was “reduced”.

Q: What about the “peak current of NMDA, difference between groups” value [7] of the same molecule?
A: Its value is “no significant difference”.

Q: What about the “frequency of a peak current caused by low magnesium, difference between groups” value ([8]; 20 μM EGAR, P<0.05, n=6) of the same molecule?
A: Its value is “significant difference”.

Q: What about the “epilepsy-like discharge of a hippocampal neuron induced by low magnesium external liquid” value ([8]; overall conclusion) of the same molecule?
A: The value was “can inhibit”.

Q: What about the “Action potential half width” value ([9]; 20 uM of EGAR treated group) of the same molecule?
A: Its value is 0.99 ± 0.01 ms.

Q: And the Amplitude ([9]; 20 uM of EGAR treated group)?
A: Its Amplitude is 87.61 ± 1.18 mV.

Q: What about the Frequency ([9]; 20 uM of EGAR treated group) of the same molecule?
A: The Frequency was 13.53 ± 2.42 Hz.

Q: What about the Input resistance ([9]; 20 uM of EGAR treated group) of the same molecule?
A: Its Input resistance is 164.57 ± 9.96 MΩ.

Q: And the Membrane capacitance ([9]; 20 uM of EGAR treated group)?
A: Its Membrane capacitance is 19.07 ± 0.67 pF.

Q: And the Resting potential ([9]; 20 uM of EGAR treated group)?
A: Its Resting potential is −65.57 ± 1.23 mV.

Q: What about the Threshold potential ([9]; 20 uM of EGAR treated group) of the same molecule?
A: Its Threshold potential is −45.61 ± 0.2 mV.

Q: And the “effect on electrophysiological parameters of a CA1 neuron” value ([9]; overall conclusion of Table 2)?
A: The value was “no significant effect”.

Q: And the “preclinical period of epilepsy seizure vs PBS treated group” value (“preclinical period … vs PBS treated group” for short) ([10]; 1 mg/kg EGAR)?
A: Its value is “significant difference”.

Q: And the “preclinical period … vs PBS treated group” value ([10]; 10 mg/kg EGAR)?
A: Its value is “significant difference”.

Q: What about the “preclinical period … vs PBS treated group” value ([10]; 100 mg/kg EGAR) of the same molecule?
A: The value was “significant difference”.

Q: And the “preclinical period of epilepsy seizure” value [10, 11]?
A: The value was “extend the preclinical period”.

Q: And the “tic symptom of PTZ-induced mouse epilepsy” value [10, 11]?
A: The value was “mitigate tic symptom”.
